Publication PMC3058116 (Therapeutic drug monitoring, 2011)
Each block holds one compound with its values, some of them ahead of it.

How the values were obtained:
[1] = Population pharmacokinetic analysis; format: in vivo, HIV-infected Thai patients
[2] = cited from earlier work
[3] = indinavir model, bootstrap median
[4] = indinavir model, final model estimate

Inter-individual variability IIV (CL/F) [1, 3]: 0.29 | Inter-individual variability IIV (Ktr) [1, 3]: 0.352 | Ktr (= Ka within a transit model) [1, 3]: 2.37 h⁻¹ | Residual variability, proportional σ (IDV 400 mg) [1, 3]: 0.42 | Residual variability, proportional σ (IDV 600 mg) [1, 3]: 0.29 | Inter-individual variability IIV (CL/F) [1, 4]: 0.30 | Inter-individual variability IIV (Ktr) [1, 4]: 0.38 | Ktr (= Ka within a transit model) [1, 4]: 2.32 h⁻¹ | Residual variability, proportional σ (IDV 400 mg) [1, 4]: 0.42 | Residual variability, proportional σ (IDV 600 mg) [1, 4]: 0.29 | Inter-individual variability IIV (Vd/F) ([1]; indinavir model, final model, ω^2(V/F) = θpV/F × ω^2(CL/F)): 0.23 | interindividual variability of CL/F ([1]; indinavir, final population estimate): 30%
SMILES: CC(C)(C)NC(=O)[C@@H]1CN(Cc2cccnc2)CCN1C[C@@H](O)C[C@@H](Cc1ccccc1)C(=O)N[C@H]1c2ccccc2C[C@H]1O [IDV, Indinavir]
indinavir AUC associated with an increased risk of developing nephrotoxicity ([2]; Thai patients receiving IDV/r 800/100 mg twice daily): > 60000 µg·h/mL | indinavir CL/F higher in male patients compared to female patients ([2]; after adjusting for concomitant ritonavir use): 30% | indinavir bioavailability higher in female patients than in males ([2]; analysis including only nine women): 48%

Residual variability σ (Proportional) ([1]; both, human, in vivo): 0.36 | interindividual variability of CL/F ([1]; both, human, in vivo): 48% | interindividual variability of Vd/F ([1]; both, human, in vivo): 45% | θIDVDOSE-600mg (factor on ritonavir CL/F) ([1]; both, human, in vivo): 0.78 | θSEX-Female (factor on ritonavir CL/F) ([1]; both, human, in vivo): 0.77 | CL/F ([1]; human, in vivo): 10.1 L/h | CL/F ([1]; human, in vivo, 100 mg): 10.1 L/h
SMILES: CC(C)c1nc(CN(C)C(=O)N[C@H](C(=O)N[C@@H](Cc2ccccc2)C[C@H](O)[C@H](Cc2ccccc2)NC(=O)OCc2cncs2)C(C)C)cs1 [RTV, ritonavir]
